Measured values from ChEMBL document CHEMBL4622969, “Design and biological evaluation of novel HIV-1 protease inhibitors with isopropanol as P1' ligand to enhance binding with S1' subsite” (Bioorg Med Chem, 2020).

Experiments:
[1] = biological target: Human immunodeficiency virus type 1 protease (Human immunodeficiency virus 1, UniProt Q72874); assay: Inhibition of HIV-1 protease expressed in Escherichia coli using Arg-Glu(EDANS)-Ser-Gln-Asn-Tyr-Pro-Ile-Val-Gln-Lys(DABCYL)-Arg as substrate preincubated for 20 to 30 mins followed by substrate addition by FRET based assay
[2] = system: Human immunodeficiency virus 1; assay: Antiviral activity against VSV-G pseudotyped darunavir-resistant HIV1 NL4-3 harboring V32I, L33F,I54M and I84V mutant infected in human SUPT1 cells at 5 uM infected with supernatants from virus-infected human 293T cells after 48 hrs by luciferase assay relative to control; assay type: functional
[3] = system: Human immunodeficiency virus 1; assay: Antiviral activity against VSV-G pseudotyped wild type HIV1 NL4-3 infected in human TZM-b1 cells at 5 uM infected with supernatants from virus-infected human SUPT1 cells after 48 hrs by luciferase assay relative to control; assay type: functional
[4] = system: Human immunodeficiency virus 1; assay: Resistance index, ratio of antiviral activity against VSV-G pseudotyped wild type HIV1 NL4-3 infected in human TZM-b1 cells infected with supernatants from virus-infected human SUPT1 cells to antiviral activity against darunavir-resistant HIV1 NL4-3 infected in human SUPT1 cells infected with supernatants from virus-infected human 293T cells at 5 uM by luciferase assay; assay type: functional
[5] = system: Human immunodeficiency virus 1; assay: Antiviral activity against VSV-G pseudotyped wild type HIV1 NL4-3 infected in human TZM-b1 cells at 100 nM infected with supernatants from virus-infected human SUPT1 cells after 48 hrs by luciferase assay relative to control; assay type: functional
[6] = system: Human immunodeficiency virus 1; assay: Antiviral activity against VSV-G pseudotyped darunavir-resistant HIV1 NL4-3 V32I, L33F,I54M and I84V mutant infected in human SUPT1 cells at 100 nM infected with supernatants from virus-infected human 293T cells after 48 hrs by luciferase assay relative to control; assay type: functional

Structure (SMILES)	IC50 [1] [nM]	other results
COc1ccc(C(=O)N[C@@H](Cc2ccccc2)[C@H](O)CN(C[C@H](C)O)S(=O)(=O)c2ccc([N+](=O)[O-])cc2)c(O)c1	505	
C[C@H](O)CN(C[C@@H](O)[C@H](Cc1ccccc1)NC(=O)c1ccccc1O)S(=O)(=O)c1ccc(C(F)(F)F)cc1	257	
COc1cc(C(=O)N[C@@H](Cc2ccccc2)[C@H](O)CN(C[C@@H](C)O)S(=O)(=O)c2ccc(C(F)(F)F)cc2)cc(OC)c1O	11.8	
COc1ccc(C(=O)N[C@@H](Cc2ccccc2)[C@H](O)CN(C[C@@H](C)O)S(=O)(=O)c2ccc([N+](=O)[O-])cc2)c(O)c1	625	
COc1cc(O)c(C(=O)N[C@@H](Cc2ccccc2)[C@H](O)CN(C[C@@H](C)O)S(=O)(=O)c2ccc(C(F)(F)F)cc2)cc1OC	61.4	
COc1cc(C(=O)N[C@@H](Cc2ccccc2)[C@H](O)CN(C[C@@H](C)O)S(=O)(=O)c2ccc([N+](=O)[O-])cc2)cc(OC)c1O	13.1	
C[C@H](O)CN(C[C@@H](O)[C@H](Cc1ccccc1)NC(=O)c1ccc(O)cc1O)S(=O)(=O)c1ccc([N+](=O)[O-])cc1	47.1	
C[C@@H](O)CN(C[C@@H](O)[C@H](Cc1ccccc1)NC(=O)c1cc(O)cc(O)c1)S(=O)(=O)c1ccc([N+](=O)[O-])cc1	4.83	inhibition (INH) [2]: 42%; inhibition (INH) [3]: 58%; Selectivity Index [4]: 1.38
C[C@H](O)CN(C[C@@H](O)[C@H](Cc1ccccc1)NC(=O)c1ccc(O)c(O)c1)S(=O)(=O)c1ccc([N+](=O)[O-])cc1	6.56	
C[C@@H](O)CN(C[C@@H](O)[C@H](Cc1ccccc1)NC(=O)c1ccccc1O)S(=O)(=O)c1ccc([N+](=O)[O-])cc1	9	
COc1cc(O)c(C(=O)N[C@@H](Cc2ccccc2)[C@H](O)CN(C[C@H](C)O)S(=O)(=O)c2ccc(C(F)(F)F)cc2)cc1OC	284	
COc1cc(O)c(C(=O)N[C@@H](Cc2ccccc2)[C@H](O)CN(C[C@@H](C)O)S(=O)(=O)c2ccc([N+](=O)[O-])cc2)cc1OC	102	
C[C@@H](O)CN(C[C@@H](O)[C@H](Cc1ccccc1)NC(=O)c1ccc(O)c(O)c1)S(=O)(=O)c1ccc(C(F)(F)F)cc1	1.64	inhibition (INH) [2]: 46%; inhibition (INH) [3]: 66%; Selectivity Index [4]: 1.43
C[C@H](O)CN(C[C@@H](O)[C@H](Cc1ccccc1)NC(=O)c1ccc(O)cc1O)S(=O)(=O)c1ccc(C(F)(F)F)cc1	40.6	
C[C@@H](O)CN(C[C@@H](O)[C@H](Cc1ccccc1)NC(=O)c1ccc(O)cc1O)S(=O)(=O)c1ccc([N+](=O)[O-])cc1	13.4	
COc1ccc(C(=O)N[C@@H](Cc2ccccc2)[C@H](O)CN(C[C@@H](C)O)S(=O)(=O)c2ccc(C(F)(F)F)cc2)c(O)c1	427	
COc1cc(O)c(C(=O)N[C@@H](Cc2ccccc2)[C@H](O)CN(C[C@H](C)O)S(=O)(=O)c2ccc([N+](=O)[O-])cc2)cc1OC	1310	
C[C@H](O)CN(C[C@@H](O)[C@H](Cc1ccccc1)NC(=O)c1ccc(O)c(O)c1)S(=O)(=O)c1ccc(C(F)(F)F)cc1	6.53	
CC(C)CN(C[C@@H](O)[C@H](Cc1ccccc1)NC(=O)O[C@H]1CO[C@H]2OCC[C@H]21)S(=O)(=O)c1ccc(N)cc1		inhibition (INH) [5]: 95%; inhibition (INH) [6]: 59%
C[C@@H](O)CN(C[C@@H](O)[C@H](Cc1ccccc1)NC(=O)c1cc(O)cc(O)c1)S(=O)(=O)c1ccc(C(F)(F)F)cc1	2.33	inhibition (INH) [2]: 51%; inhibition (INH) [3]: 76%; Selectivity Index [4]: 1.49
C[C@H](O)CN(C[C@@H](O)[C@H](Cc1ccccc1)NC(=O)c1cc(O)cc(O)c1)S(=O)(=O)c1ccc([N+](=O)[O-])cc1	37.4	
C[C@H](O)CN(C[C@@H](O)[C@H](Cc1ccccc1)NC(=O)c1ccccc1O)S(=O)(=O)c1ccc([N+](=O)[O-])cc1	78.2	
C[C@@H](O)CN(C[C@@H](O)[C@H](Cc1ccccc1)NC(=O)c1ccccc1O)S(=O)(=O)c1ccc(C(F)(F)F)cc1	32.1	
C[C@@H](O)CN(C[C@@H](O)[C@H](Cc1ccccc1)NC(=O)c1ccc(O)cc1O)S(=O)(=O)c1ccc(C(F)(F)F)cc1	12.3	
C[C@@H](O)CN(C[C@@H](O)[C@H](Cc1ccccc1)NC(=O)c1ccc(O)c(O)c1)S(=O)(=O)c1ccc([N+](=O)[O-])cc1	10.3	
COc1cc(C(=O)N[C@@H](Cc2ccccc2)[C@H](O)CN(C[C@H](C)O)S(=O)(=O)c2ccc([N+](=O)[O-])cc2)cc(OC)c1O	75.8	
COc1cc(C(=O)N[C@@H](Cc2ccccc2)[C@H](O)CN(C[C@H](C)O)S(=O)(=O)c2ccc(C(F)(F)F)cc2)cc(OC)c1O	14	
COc1ccc(C(=O)N[C@@H](Cc2ccccc2)[C@H](O)CN(C[C@H](C)O)S(=O)(=O)c2ccc(C(F)(F)F)cc2)c(O)c1	187	
C[C@H](O)CN(C[C@@H](O)[C@H](Cc1ccccc1)NC(=O)c1cc(O)cc(O)c1)S(=O)(=O)c1ccc(C(F)(F)F)cc1	27.2	
